Key:
[1] = target: T1, T. ni/huANT3 mitochondria (Homo sapiens, UniProt P12236); experiment: 125I-compound 24 competition binding (Tube Assay), mitochondria from T. ni cells expressing huANT3; conditions: mitochondria from T. ni cells expressing huANT3; FIGS. 12, 14, 15
T1 construct: expressed in transfected cells; host or cells: Trichoplusia ni cells infected with recombinant baculovirus (cells prepared by PharMingen); isolated mitochondria
T1 sequence (P12236 1-298): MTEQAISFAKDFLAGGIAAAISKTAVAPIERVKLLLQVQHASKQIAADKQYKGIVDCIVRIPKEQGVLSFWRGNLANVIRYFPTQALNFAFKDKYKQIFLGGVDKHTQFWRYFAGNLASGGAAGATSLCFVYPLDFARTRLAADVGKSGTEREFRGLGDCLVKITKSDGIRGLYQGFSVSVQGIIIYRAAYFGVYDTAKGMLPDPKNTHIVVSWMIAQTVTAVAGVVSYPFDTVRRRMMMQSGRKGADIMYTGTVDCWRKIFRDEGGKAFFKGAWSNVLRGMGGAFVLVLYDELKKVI
Procedure: Atractyloside analogs (Example 6; Table 1; see also Examples 7-9) were also used in pseudo-homologous competition binding assays using T. ni/huANT3 mitochondria or bovine mitochondria. Mitochondria from noninfected T. ni cells, or T. ni cells infected with a baculovirus expressing huANT3 (see Example 3) were prepared as follows: […] cells were prepared by a subcontractor (PharMingen, San Diego, Calif.) as portions of about 250 mg of cells per tube. Each portion was suspended in 1 ml of MSB with protease inhibitors (leupeptin, final concentration 10 ug/ml; pepstatin, final concentration 10 ug/ml; aprotinin, final concentration, 2 ug/ml; phenylmethylsulfonyl fluoride, [PMSF], final concentration, 100 μM; all from Sigma Chemical Co., St. Louis, Mo.). The resuspended cell suspensions were frozen and thawed twice, then homogenized using a rotating teflon-coated probe and a close-fitting glass container (10 passes). The cellular homogenate was centrifuged (3,700 rpm, approximately 1,500×g) at 4° C. for 5 minutes; this supernatant from the first spin was saved. The pellet was washed with about 500 μl of MSB with protease inhibitors, centrifuged (3,800 rpm, approximately 1,600×g) at 4° C. for 5 minutes, and supernatant from this spin was combined with the supernatant from the first spin. […]
The mitochondrial preparations were divided into aliquots (typically, 50μl for T. ni mitochondria or 20 μl for bovine mitochondria) and then either used directly in assays or flash frozen and stored at −80° C. The total protein content in the mitochondrial preparations was determined using the enhanced protocol (30 minutes at 60° C.; see http://www.ruf.rice.edu/˜bioslabs/methods/protein/BCA.html) of the bicinchoninic acid (BCA) assay (available in kit form from Pierce, Rockford, Ill.). […]
Unbound ^125I-compound 24 was removed by aspiration. […] The resultant pellets were aspirated and the radioactivity (dpm) in each was determined by gamma counting.

[2] = target: T2, bovine mitochondria (ANT) (Bos taurus, UniProt P02722); experiment: 125I-compound 24 competition binding (Tube Assay), beef heart mitochondria; conditions: for competitive inhibition of 125I-compound 24 binding (in words): FIGS. 11, 13, 16
T2 construct: from tissue; host or cells: bovine heart mitochondria
T2 sequence (P02722 2-298 limits assumed): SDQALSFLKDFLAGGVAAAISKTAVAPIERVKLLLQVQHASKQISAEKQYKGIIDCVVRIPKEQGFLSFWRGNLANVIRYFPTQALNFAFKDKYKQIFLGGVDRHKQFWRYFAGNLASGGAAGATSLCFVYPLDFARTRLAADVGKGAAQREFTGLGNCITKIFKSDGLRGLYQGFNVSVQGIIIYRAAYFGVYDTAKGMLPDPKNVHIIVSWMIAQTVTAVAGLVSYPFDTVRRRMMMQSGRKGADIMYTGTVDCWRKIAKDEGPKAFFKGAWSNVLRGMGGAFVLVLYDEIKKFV
Procedure: Bovine mitochondria were prepared as follows: Essentially all of the fat and cholesterol […] was removed from two bovine hearts which were then cut into 1-inch cubes. The cubes were ground in a meat grinder using the fine setting. Three hundred (300) […] portions of the ground heart were weighed out and, to each was added 400 ml of Isolation Buffer (IB; 250 mM sucrose, 1 mM sodium succinate, 0.2 mM K^+EDTA, 10 mM Tris-base, pH 7.8). (All buffers were filter sterilized, and column buffers were degassed, and, unless otherwise noted, all steps were carried out at 0 to 4° C. on ice or in pre-cooled rotors and centrifuges.) The preparations were mixed in a blender two times for 15 seconds on high setting and, in between and after blends, the pH was adjusted to 7.8 with 2M Tris-base. The homogenate was centrifuged for 20 minutes at 1,200×g, and the supernatant was poured through two layers of cheese cloth and adjusted to pH 7.8 with 2M Tris-base. The supernatant was then centrifuged for 30 minutes at […]. The supernatant was decanted, and the buff-colored outer pellet was dislodged with about 10 ml of IB and discarded. The brown inner pellet (heavy mitochondria) was resuspended in IB (about 10 ml per pellet). The pellets were homogenized in a glass-teflon homogenizer (2 passes at high drill speed). Samples were combined and centrifuged for 30 minutes at 11,000×g. The supernatant was decanted, and the pellets were resuspended in 60 ml of IB per 900 gm of ground heart. This centrifugation step was repeated and the pellets were finally resuspended in IB (60 ml per 900 gm of ground heart). One kilogram of beef heart typically yields about one (1) gram of mitochondria
The mitochondrial preparations were divided into aliquots (typically, 50μl for T. ni mitochondria or 20 μl for bovine mitochondria) and then either used directly in assays or flash frozen and stored at −80° C. The total protein content in the mitochondrial preparations was determined using the enhanced protocol (30 minutes at 60° C.; see http://www.ruf.rice.edu/˜bioslabs/methods/protein/BCA.html) of the bicinchoninic acid (BCA) assay (available in kit form from Pierce, Rockford, Ill.).
In the “Tube Assay,” mitochondria (from about 1 to 10 μg of total protein) were resuspended in 100 μl of Tris-KCl buffer with 0.1% BSA, pH 7.4. ^125I-labeled compound 24 (Example 11) was added to a final concentration of 0.5 nM. When used, competitors were added at these concentration ranges: unlabeled atractyloside or compound 24 final concentration from 5 nM to 10 μM; unlabeled ADP (a lower affinity competitor) was added at a final concentration of 500 nM to 1 mM.
The reaction mixes were incubated on ice for 60 minutes and then pelleted by centrifugation (approximately 16,000×g) for 11 minutes at 4° C.
Unbound ^125I-compound 24 was removed by aspiration. The pellets were contact-washed with Tris-KCl buffer, pH 7.4, and recentrifuged. The resultant pellets were aspirated and the radioactivity (dpm) in each was determined by gamma counting.

[3] = target: T3, His-tagged huANT3 (Homo sapiens, UniProt P12236); experiment: 125I-compound 24 competition binding to recombinant His-tagged huANT3 immobilized on Ni beads; parameters: made in house; host or cells: baculovirus-infected Trichoplusia ni cells; mitochondria solubilized and captured on Ni-agarose beads (Qiagen); conditions: His-tagged huANT3 on Ni-agarose beads, 1 hour at 4° C.; FIG. 19
T3 sequence (P12236 1-298): T1 sequence (P12236 1-298)
Procedure: Competitive binding assays were also performed using recombinant His-tagged huANT3 (see Example 3) immobilized on Ni beads (FIG. 19) instead of mitochondria. To prepare the bead-immobilized huANT3, mitochondria from T. ni cells infected with a baculovirus expressing huANT3 (see Example 3) were solubilized with 0.5% O-glucopyranoside in the presence of 0.5 nM ^125I-compound 24 Ni-agarose beads (Qiagen, Hilden, Germany), and various concentrations of ATR or BKA as unlabeled competitors. After 1 hour at 4° C., the beads were washed and radioactivity that remained associated with the beads was counted.

Compound	competitive inhibition of 125I-compound 24 binding (in words) [1]	competitive inhibition of 125I-compound 24 binding (in words) [2]	competitive inhibition of 125I-compound 24 binding (in words) [3]	IC50 ([2]; 0.5 nM 125I-compound 24, FIG. 18, read-out: IC50, competitive inhibition of 125I-compound 24 binding)
Nc1ncnc2c1ncn2[C@@H]1O[C@H](COP(=O)(O)OP(=O)(O)O)[C@@H](O)[C@H]1O [ADP, adenosine diphosphate]	low affinity	low affinity		
CO[C@H](C/C=C\C=C\CC/C=C/C[C@H](C)/C=C/C(=C\C(=O)O)CC(=O)O)/C(C)=C\C=C(/C)C(=O)O [BKA, bongkrekic acid]		effectively displaced labeled compound 24, albeit with a slightly lower affinity than unlabeled compound 24	effectively compete with compound 24	
CC(C)CC(=O)OC1C(OC2CC(C(=O)O)C3CCC45CC(CCC4C3(C)C2)C(C)C5O)OC(CO)C(OS(=O)(=O)O)C1OS(=O)(=O)O (centres unmarked) [compound 5, Dihydroatractyloside]				~3.3 µM

From patent US6906175B2, “Production of adenine nucleotide translocator (ANT), novel ANT ligands and screening assays therefor” (priority 1998, dated 2005)
